# Assays:
# [1] = tested on: collagen-induced arthritis; test: Inhibitory Effect on Collagen-Induced Arthritis (No. 1), sole thickness; assay type: in vivo, DBA/1J mice; details: mean ± SD
# Method: (§1) The preventive effect on the onset of collagen-induced arthritis was tested by using DBA/1J mice in groups of 5-8. Specifically, type II collagen was mixed with an equal volume of Freund's complete adjuvant and emulsified to prepare a 1 mg/ml emulsion. Mice were sensitized by administering 0.1 ml of this emulsion intracutaneously to the root of the tail. After 21 days, the mice were additionally immunized by emulsifying type II collagen in the same manner as before and administering 0.1 ml of the emulsion intraperitoneally so as to induce arthritis.
# Starting from the day of the first sensitization with type II collagen, Compound 1 was orally administered, once a day, for 43 days in a dose of 10 or 30 mg/kg body weight. Similarly, each of Compounds 2 and 3 was intraperitoneally administered, once a day, for 43 days in a dose of 1 or 10 mg/kg body weight. Their inhibitory effect on collagen-induced arthritis was evaluated by measuring the sole thicknesses of the hind legs periodically with digital vernier calipers.
# [2] = tested on: neogenesis of tumor vessels induced by the transplanted mouse tumor S180; test: Inhibitory Effect on Vascularization Using the Mouse Back Subcutaneous Transplantation Method; assay type: in vivo, male ICR mouse; details: for Vascularization score: oral 100 mg/kg, 5 days, mean ± SE
# Method: The inhibitory effect of Compounds 1 and 3 in accordance with the present invention on the neogenesis of tumor vessels induced by the transplanted mouse tumor S180 was tested using the mouse back subcutaneous transplantation method. Specifically, 1×10^7 S180 cells were injected into a chamber formed by attaching a Millipore filter having a pore size of 0.45 μm to either side of a Millipore ring. After the injection hole was stopped up, this chamber was transplanted into an air sac formed beneath the skin of the back of a male ICR mouse (9-10 weeks old). Starting from the day of transplantation, a test compound or a solvent control comprising a 0.5% carboxymethylcellulose solution was orally administered for 5 days. After the skin was separated on the fifth day of transplantation, an O-ring of 10 mm internal diameter having the same shape as the Millipore ring was placed on the part of the skin which had been in contact with the chamber, observed under a stereoscopic microscope, and photographed.
# In the photographs so taken, the degree of vascularization was rated 0, 1, 2 or 3 according to the number of 3 mm or longer tortuous blood vessels characteristic of tumoral vessels, and scored on the following basis.
# 0: No tumoral vessel was observed.
# 1: One tumoral vessel was observed.
# 2: Two tumoral vessels were observed.
# 3: Three or more tumoral vessels were observed.
# Acute toxicity in mice = assay type: in vivo, DBA/1J mice; details: 100 mg/kg; for evidence of toxicity, single administration: mouse, in vivo; for mortality, single administration: oral or intraperitoneal, eight DBA/1J mice
# Method: (§2) Among the compounds in accordance with the present invention, each of Compounds 1, 2 and 3 was orally or intraperitoneally administered to eight DBA/1J mice in a dose of 100 mg/kg body weight. […] This seems to indicate that the compounds used in the present invention have no or very little, if any, acute toxicity. Moreover, Compound 1, in a dose of 100 mg/kg body weight, or Compound 3, in a dose of 30 mg/kg body weight, was orally administered to eight mice of the aforesaid strain for 40 days. […] Thus, the compounds of the present invention have little subacute toxicity. Since other compounds in accordance with the present invention are estimated to have similar properties, the compounds of the present invention can be used very safely.
# [3] = design: species or system DBA/1J mice; details: mouse, in vivo, po, 100 mg/kg
# Method: as §2
# carrageenin edema = test: Effect on Carrageenin Edema; assay type: in vivo, ICR mice
# Method: The effect on carrageenin edema was tested by using ICR mice in groups of 6-7. Specifically, Compound 3 was orally administered thereto in a dose of 3 or 30 mg/kg body weight. As a positive control drug, indomethacin was similarly administered in a dose of 20 mg/kg body weight. After 30 minutes, 25 μl of a 1% carrageenin solution was subcutaneously injected into the sole of the right hind leg. Two hours after the administration of carrageenin, the thickness of the sole was measured with digital vernier calipers, and the degree of edema (%) based on the thickness measured before administration was calculated.
# [4] = tested on: collagen-induced arthritis; test: Inhibitory Effect on Collagen-Induced Arthritis (No. 2), arthritis score; assay type: in vivo, DBA/1J mice; details: oral
# Method: as §1
# Animals having arthritis induced in the same manner as described above were used in groups of 7-8. Compound 3 was orally administered, once a day, for 21 days following the additional immunization in a dose of 1, 3 or 10 mg/kg body weight. For comparative purposes, MI43 was similarly administered to another group in a dose of 30 mg/kg body weight. According to the degree of rubor, swelling and rigidity in each of the forelegs and hind legs of the experimental animals, their inhibitory effect on collagen-induced arthritis was evaluated on the following basis by a score ranging from 0 to 4 (with a maximum value of 16).
# 0: No symptom is observed.
# 2: Two or more small joints, or a relatively large joint such as that of the wrist or ankle, show rubor or swelling.
# 4: The total swelling of the hand or foot reaches its peak and, moreover, is accompanied by joint rigidity.
# [5] = Levels of Orally Administered Test Compounds in Blood Plasma; assay type: in vivo, male ICR mice
# Method: Each of Compound 3 and MI43 was orally administered to fasted male ICR mice (weighing 18-21 g) in a dose of 25 mg/kg. Blood samples were collected from the mice 5 minutes, 30 minutes, 4 hours, 8 hours and 24 hours after administration (3 mice per point for Compound 3 and 5 mice per point for MI43). These blood samples were centrifuged to obtain blood plasma samples. Each of the blood plasma samples was subjected to the following pretreatment and then analyzed by high-performance liquid chromatography (HPLC). 1.8 ml of a saturated aqueous solution of ammonium sulfate and 1.0 ml of methanol were added to and mixed with 0.2 ml of the blood plasma sample. This mixture was shaken with 3.5 ml of ethyl acetate. After this mixture was centrifuged, the ethyl acetate layer was separated. Moreover, the aqueous layer was shaken with 3.5 ml of ethyl acetate, followed by centrifugation. The ethyl acetate layer thus obtained was combined with the previously separated ethyl acetate layer, and this mixture was evaporated to dryness under reduced pressure. The resulting residue was redissolved in 0.2 ml of a 50% aqueous solution of acetonitrile and used as a sample for HPLC.
# The analytical conditions for HPLC (using the CCTD system manufactured by Toso Co., Ltd.) were as follows: A YMC A-312 column (ODS 6×150 mm; manufactured by YMC Co., Ltd.) was used as the column. As the mobile phase, a 60:40 mixture of acetonitrile and 0.1% aqueous TFA was used for Compound 3, and a 40:60 mixture of acetonitrile and 0.1% aqueous TFA was used for MI43. The rest compound was eluted at a flow velocity of 1.0 ml/min and detected by UV light at 244 nm.
# adjuvant arthritis = details: oral administration, rats; cited from earlier work
# [6] = tested on: collagen-induced arthritis; details: oral administration, mice; cited from earlier work
# [7] = tested on: various animal cells and human cancer cells; details: cited from earlier work
smiles,measurement,setting,value
"COc1cc(O)c2c(=O)oc(C(=O)O)cc2c1 [Compound 1, 8-hydroxy-6-methoxy-1-oxo-1H-2-benzopyran-3-carboxylic Acid]","Sole thickness (sum of left and right, mm), after 37 days","[1]; oral, 10 mg/kg/day, **p < 0.01 vs control (8.02 ± 0.82)",6.44 ± 0.40 mm
same,"Sole thickness (sum of left and right, mm), after 37 days","[1]; oral, 30 mg/kg/day, **p < 0.01 vs control (8.02 ± 0.82)",6.12 ± 0.22 mm
same,Vascularization score,"[2]; n = 9, p < 0.05 vs control (3.00 ± 0.00), Table 3",1.67 ± 0.53
same,inhibition of vascularization induced by tumor cell S180 (in words),"[2]; oral, 100 mg/kg body weight",significantly inhibited vascularization
same,"evidence of toxicity, single administration",Acute toxicity in mice,no animal showed evidences of toxicity
same,"mortality, single administration",Acute toxicity in mice,No animal died
same,"evidence of toxicity, 40 days",[3],no animal showed evidences of toxicity
same,"mortality, 40 days",[3],No animal died
"COc1cc(O)c2c(=O)oc(CC(=O)O)cc2c1 [Compound 2, (8-hydroxy-6-methoxy-1-oxo-1H-2-benzopyran-3-yl)acetic Acid]","Sole thickness (sum of left and right, mm), after 37 days","[1]; intraperitoneal, 1 mg/kg/day, *p < 0.05 vs control (8.02 ± 0.82)",6.81 ± 1.07 mm
same,"Sole thickness (sum of left and right, mm), after 37 days","[1]; intraperitoneal, 10 mg/kg/day, *p < 0.05 vs control (8.02 ± 0.82)",7.19 ± 0.40 mm
same,"evidence of toxicity, single administration",Acute toxicity in mice,no animal showed evidences of toxicity
same,"mortality, single administration",Acute toxicity in mice,No animal died
"COc1ccc2c(c1)c(CC(=O)O)c(C)n2C(=O)c1ccc(Cl)cc1 [Indomethacin, reference compound]",effect on carrageenin edema (in words),carrageenin edema; 20 mg/kg,significan inhibitory effect
same,Degree of edema (%),"carrageenin edema; oral 20 mg/kg, 2 h after carrageenin, mean ± SE, **p < 0.01 vs control (47.4 ± 2.8)",18.5 ± 3.5%
"COc1cc(O)c2c(=O)oc(CO)cc2c1 [MI43, 3-hydroxymethyl-6-methoxy-8-hydroxy-1H-2-benzopyran-1-one, reference compound]",reduction in arthritis score (in words),[4]; 30 mg/kg body weight,no significant reduction in arthritis score
same,Score after 37 days,"[4]; 30 mg/kg/day, mean ± SE, maximum 16, control 9.25 ± 1.35",5.29 ± 1.77
same,Vascularization score,"[2]; n = 11, control 2.93 ± 0.07, Table 4",1.09 ± 0.39
same,concentration at 5 min,"[5]; mouse, plasma, oral 25 mg/kg, 5 min, read-out: Concentration of unchanged M143 in blood plasma, mean",811 ng/mL
same,concentration at 0.5 h,"[5]; mouse, plasma, oral 25 mg/kg, 30 min, read-out: Concentration of unchanged M143 in blood plasma, mean",155 ng/mL
same,concentration at 4 h,"[5]; mouse, plasma, oral 25 mg/kg, 4 hr, read-out: Concentration of unchanged M143 in blood plasma, mean",48 ng/mL
same,Tmax,"[5]; mouse, plasma, unchanged compound, oral 25 mg/kg, read-out: time of peak / highest plasma level after administration (converted)",5 min
same,number of metabolites detected in plasma,[5]; oral 25 mg/kg,5
same,plasma concentration course after 5 minutes (in words),"[5]; unchanged MI43, oral 25 mg/kg",decreased sharply
same,inhibition of adjuvant arthritis (in words),adjuvant arthritis,significantly inhibit adjuvant arthritis in rats
same,inhibition of collagen-induced arthritis (in words),[6],significantly inhibit adjuvant arthritis in rats and collagen-induced arthritis in mice
same,growth-inhibiting activity (in words),[7],growth-inhibiting activity against various animal cells and human cancer cells

# — patent US6020363A, “Isocoumarin derivatives and use thereof in drugs” (Mercian Corporation, priority 1998, dated 2000)
